{"source": "patent US8133898B2", "about": "“Renin inhibitors” (Takeda Pharmaceutical Company Limited, priority 2008, dated 2012)", "key": {"[1]": {"biological_target": "T1, Recombinant human renin (Homo sapiens, UniProt P00797)", "T1 construct": "with trypsin, and isolate the active form (residues 67-406); made in house; host or cells: FreeStyle 293-F cells (transient expression of pcDNA3.1(+)/hREN)", "T1 sequence (P00797 67-406)": "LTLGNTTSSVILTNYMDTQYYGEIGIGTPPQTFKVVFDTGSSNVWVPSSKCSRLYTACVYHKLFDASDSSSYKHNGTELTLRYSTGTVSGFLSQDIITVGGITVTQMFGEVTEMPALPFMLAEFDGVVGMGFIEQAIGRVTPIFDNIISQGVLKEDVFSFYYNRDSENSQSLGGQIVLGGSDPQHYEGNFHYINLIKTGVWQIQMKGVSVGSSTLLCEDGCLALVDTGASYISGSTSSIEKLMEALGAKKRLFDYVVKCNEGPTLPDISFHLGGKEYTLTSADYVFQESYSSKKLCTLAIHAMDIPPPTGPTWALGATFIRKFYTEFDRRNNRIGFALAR", "experiment": "in vitro enzymatic activity of renin inhibitors (fluorescence)", "format": "biochemical", "conditions": "fluorogenic peptide substrate", "description": "Test compounds in varying concentrations may be reacted with recombinant human renin in the presence of substrate, e.g., QXL520-γ-Abu-Ile-His-Pro-Phe-His-Leu-Val-Ile-His-Thr-Lys (HiLyteFluo488)-Arg-OH (Anaspec, San Jose, Calif.). The reaction can be followed kinetically using fluorescence (excitation λ=485 nm; emission λ=538 nm). Inhibition constants (IC50) may be calculated by non-linear curve fitting of the compound concentrations and fluorescence intensities to the standard IC50 equation.\nSolutions of test compounds in varying concentrations (≦2 mM final concentration) are prepared in dimethyl sulfoxide (DMSO) and then diluted into assay buffer comprising 50 mM Hepes, 1 mM EDTA, 1 mM DTT, 0.1 mg/ml BSA, 0.01% Brij35, pH 7.4. Alternatively, the assay can be performed with a high BSA concentration, wherein the buffer contains an additional 2% BSA.\nRecombinant human renin (3 nM final concentration) is added to the dilutions and pre-incubated with the compounds for 10 minutes at 37° C. As described in Examples A-C above, human renin can be obtained by expressing preprorenin (residue 1-406) in mammalian cells, treating the prorenin (residues 24-406) contained in the culture supernatant with trypsin, and isolate the active form (residues 67-406). After pre-incubation, the reaction is initiated with 1 μM of substrate QXL520-γ-Abu-Ile-His-Pro-Phe-His-Leu-Val-Ile-His-Thr-Lys (HiLyteFluo488)-Arg-OH (Anaspec, San Jose, Calif.). The final DMSO in the assay is 5%. The total volume of the reaction mixture is 20 μL, which can be placed on Greiner 384-well small volume plates.\nRenin activity may be determined via fluorescence (excitation λ=485 nm; emission λ=538 nm), e.g., on a Molecular Devices SPECTROmax GEMINI XPS. The fluorescence intensity is determined upon the addition of substrate and determined again after incubation at 37° C. for one hour. The fluorescence intensity of a blank (no inhibition) using vehicle alone is also determined. Renin activity is linearly proportional to the change in fluorescence observed (final—initial).\nThe percent inhibition of renin at a given compound concentration is defined as: 100%×[1−(Fcompound/Fblank)] where Fcompound is the observed fluorescence at a given concentration of test compound and Fblank is the observed fluorescence in the presence of vehicle alone.\nThe pIC50 value (negative log of the molar concentration of the compound that produces 50% inhibition) of a test compound is calculated by non-linear least squares curve fitting of the equation: Percent Inhibition=100%/(1+(10−pIC50/10 log [I])) to percent inhibition versus compound concentration. The 50% inhibitory concentration (IC50) of a test compound is calculated by raising 10 to the negative pIC50 (10-pIC50)."}, "[2]": {"biological_target": "Human DPP-IV (Homo sapiens, UniProt P27487)", "sequence (P27487 whole entry)": "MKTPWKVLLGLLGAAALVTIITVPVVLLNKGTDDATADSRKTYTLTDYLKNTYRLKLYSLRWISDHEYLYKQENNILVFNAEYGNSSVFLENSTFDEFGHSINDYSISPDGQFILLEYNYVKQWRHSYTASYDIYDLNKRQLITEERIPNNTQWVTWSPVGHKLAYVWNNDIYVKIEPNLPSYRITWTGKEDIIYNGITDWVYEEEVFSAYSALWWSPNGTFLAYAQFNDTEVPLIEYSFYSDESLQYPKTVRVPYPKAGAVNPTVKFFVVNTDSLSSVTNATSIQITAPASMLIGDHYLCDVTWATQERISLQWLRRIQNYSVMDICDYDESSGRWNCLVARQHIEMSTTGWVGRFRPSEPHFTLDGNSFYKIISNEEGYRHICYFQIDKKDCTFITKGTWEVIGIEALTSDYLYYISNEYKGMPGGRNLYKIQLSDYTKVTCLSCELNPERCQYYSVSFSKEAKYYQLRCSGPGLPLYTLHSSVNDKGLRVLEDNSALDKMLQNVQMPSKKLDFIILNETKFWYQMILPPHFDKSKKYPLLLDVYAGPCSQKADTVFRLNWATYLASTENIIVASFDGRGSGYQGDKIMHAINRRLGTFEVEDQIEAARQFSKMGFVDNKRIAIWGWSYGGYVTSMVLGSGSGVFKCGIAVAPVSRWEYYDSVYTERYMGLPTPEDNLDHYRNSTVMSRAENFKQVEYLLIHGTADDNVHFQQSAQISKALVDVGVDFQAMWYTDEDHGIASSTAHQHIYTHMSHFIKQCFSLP", "experiment": "in vitro enzymatic activity of inhibitors against DPP-IV", "format": "biochemical", "conditions": "AP-AFC substrate", "experimental": "Solutions of test compounds in varying concentrations ([…]) were prepared in dimethyl sulfoxide (DMSO) and then diluted into assay buffer comprising: 20 mM Tris, pH 7.4; 20 mM KCl; and 0.1 mg/mL BSA. Human DPP-IV (0.1 nM final concentration) was added to the dilutions and pre-incubated for 10 minutes at ambient temperature before the reaction was initiated with A-P-7-amido-4-trifluoromethylcoumarin (AP-AFC; 10 μM final concentration). The total volume of the reaction mixture was 10-100 μL depending on assay formats used (384 or 96 well plates). The reaction was followed kinetically (excitation λ=400 nm; emission λ=505 nm) for 5-10 minutes or an end-point was measured after 10 minutes. Inhibition constants (IC50) were calculated from the enzyme progress curves using standard mathematical models."}}}
{"molecule": "6-(aminomethyl)-5-(2-bromo-5-fluorophenyl)-7-(4-(ethylamino)phenylthio)-1,3-dimethylpyrido[2,3-d]pyrimidine-2,4(1H,3H)-dione [Compound 69]", "values": [{"measurement": "IC50", "setting": "[1]", "result": "10 to 100", "unit": "µM"}, {"measurement": "IC50", "setting": "[2]", "result": "< 1", "unit": "µM"}]}
{"molecule": "CCOc1cc(OCC)cc(-c2c(CN)c(NCc3ccc4ccccc4c3)nc3c2c(=O)n(C)c(=O)n3C)c1", "note": "[Compound 56, 6-(Aminomethyl)-5-(3,5-diethoxyphenyl)-1,3-dimethyl-7-(naphthalen-2-ylmethylamino)pyrido[2,3-d]pyrimidine-2,4(1H,3H)-dione]", "values": [{"measurement": "IC50", "setting": "[1]", "result": "> 100", "unit": "µM"}, {"measurement": "IC50", "setting": "[2]", "result": "> 100", "unit": "µM"}]}
{"molecule": "COc1cc(OC)cc(-c2c(CN)c(NCc3ccc4ccccc4c3)nc3c2c(=O)n(C)c(=O)n3C)c1", "note": "[Compound 57, 6-(aminomethyl)-5-(3,5-dimethoxyphenyl)-1,3-dimethyl-7-(naphthalen-2-ylmethylamino)pyrido[2,3-d]pyrimidine-2,4(1H,3H)-dione]", "values": [{"measurement": "IC50", "setting": "[1]", "result": "1 to 10", "unit": "µM"}, {"measurement": "IC50", "setting": "[2]", "result": "> 100", "unit": "µM"}]}
{"molecule": "CN(C)C(=O)c1cccc(-c2c(CN)c(NCc3ccc4ccccc4c3)nc3c2c(=O)n(C)c(=O)n3C)c1", "note": "[Compound 58, 3-(6-(Aminomethyl)-1,3-dimethyl-7-(naphthalen-2-ylmethylamino)-2,4-dioxo-1,2,3,4-tetrahydropyrido[2,3-d]pyrimidin-5-yl)-N,N-dimethylbenzamide]", "values": [{"measurement": "IC50", "setting": "[1]", "result": "1 to 10", "unit": "µM"}]}
{"molecule": "Cn1c(=O)c2c(-c3cccc4c3OC(C)(C)C4)c(CN)c(NCc3ccc4ccccc4c3)nc2n(C)c1=O", "note": "[Compound 59, 6-(Aminomethyl)-5-(2,2-dimethyl-2,3-dihydrobenzofuran-7-yl)-1,3-dimethyl-7-(naphthalen-2-ylmethylamino)pyrido[2,3-d]pyrimidine-2,4(1H,3H)-dione]", "values": [{"measurement": "IC50", "setting": "[1]", "result": "1 to 10", "unit": "µM"}, {"measurement": "IC50", "setting": "[2]", "result": "10 to 100", "unit": "µM"}]}
{"molecule": "COc1ccc(Oc2cccc(-c3c(CN)c(NCc4ccc5ccccc5c4)nc4c3c(=O)n(C)c(=O)n4C)c2)cc1", "note": "[Compound 60, 6-(Aminomethyl)-5-(3-(4-methoxyphenoxy)phenyl)-1,3-dimethyl-7-(naphthalen-2-ylmethylamino)pyrido[2,3-d]pyrimidine-2,4(1H,3H)-dione]", "values": [{"measurement": "IC50", "setting": "[1]", "result": "1 to 10", "unit": "µM"}, {"measurement": "IC50", "setting": "[2]", "result": "10 to 100", "unit": "µM"}]}
{"molecule": "COc1ccc(-c2c(CN)c(NCc3ccc4ccccc4c3)nc3c2c(=O)n(C)c(=O)n3C)cc1OC", "note": "[Compound 61, 6-(Aminomethyl)-5-(3,4-dimethoxyphenyl)-1,3-dimethyl-7-(naphthalen-2-ylmethylamino)pyrido[2,3-d]pyrimidine-2,4(1H,3H)-dione]", "values": [{"measurement": "IC50", "setting": "[1]", "result": "1 to 10", "unit": "µM"}, {"measurement": "IC50", "setting": "[2]", "result": "10 to 100", "unit": "µM"}]}
{"molecule": "Cn1c(=O)c2c(-c3nc4ccccc4s3)c(CN)c(NCc3ccc4ccccc4c3)nc2n(C)c1=O", "note": "[Compound 62, 6-(Aminomethyl)-5-(benzo[d]thiazol-2-yl)-1,3-dimethyl-7-(naphthalen-2 ylmethylamino)pyrido[2,3-d]pyrimidine-2,4(1H,3H)-dione]", "values": [{"measurement": "IC50", "setting": "[1]", "result": "> 100", "unit": "µM"}, {"measurement": "IC50", "setting": "[2]", "result": "> 100", "unit": "µM"}]}
{"molecule": "Cn1c(=O)c2c(-c3ccccc3Oc3ccccc3)c(CN)c(NCc3ccc4ccccc4c3)nc2n(C)c1=O", "note": "[Compound 63, 6-(Aminomethyl)-1,3-dimethyl-7-(naphthalen-2-ylmethylamino)-5-(2-phenoxyphenyl)pyrido[2,3-d]pyrimidine-2,4(1H,3H)-dione]", "values": [{"measurement": "IC50", "setting": "[1]", "result": "1 to 10", "unit": "µM"}, {"measurement": "IC50", "setting": "[2]", "result": "1 to 10", "unit": "µM"}]}
{"molecule": "CCOc1ccc(OCC)c(-c2c(CN)c(NCc3ccc4ccccc4c3)nc3c2c(=O)n(C)c(=O)n3C)c1", "note": "[Compound 64, 6-(aminomethyl)-5-(2,5-diethoxyphenyl)-1,3-dimethyl-7-(naphthalen-2-ylmethylamino)pyrido[2,3-d]pyrimidine-2,4(1H,3H)-dione]", "values": [{"measurement": "IC50", "setting": "[1]", "result": "1 to 10", "unit": "µM"}, {"measurement": "IC50", "setting": "[2]", "result": "> 100", "unit": "µM"}]}
{"molecule": "CCCOc1ccc(OCCC)c(-c2c(CN)c(NCc3ccc4ccccc4c3)nc3c2c(=O)n(C)c(=O)n3C)c1", "note": "[Compound 65, 6-(Aminomethyl)-5-(2,5-dipropoxyphenyl)-1,3-dimethyl-7-(naphthalen-2-ylmethylamino)pyrido[2,3-d]pyrimidine-2,4(1H,3H)-dione]", "values": [{"measurement": "IC50", "setting": "[1]", "result": "10 to 100", "unit": "µM"}, {"measurement": "IC50", "setting": "[2]", "result": "> 100", "unit": "µM"}]}
{"molecule": "Cn1c(=O)c2c(-c3ccc(CN)cc3)c(CN)c(N)nc2n(C)c1=O", "note": "[Compound 66, 7-Amino-6-(aminomethyl)-5-(4-(aminomethyl)phenyl)-1,3-dimethylpyrido[2,3-d]pyrimidine-2,4(1H,3H)-dione]", "values": [{"measurement": "IC50", "setting": "[1]", "result": "10 to 100", "unit": "µM"}, {"measurement": "IC50", "setting": "[2]", "result": "> 100", "unit": "µM"}]}
{"molecule": "CCCOc1cc(OCCC)cc(-c2c(CN)c(NCc3ccc4ccccc4c3)nc3c2c(=O)n(C)c(=O)n3C)c1", "note": "[Compound 67, 6-(Aminomethyl)-5-(3,5-dipropoxyphenyl)-1,3-dimethyl-7-(naphthalen-2-ylmethylamino)pyrido[2,3-d]pyrimidine-2,4(1H,3H)-dione]", "values": [{"measurement": "IC50", "setting": "[1]", "result": "10 to 100", "unit": "µM"}, {"measurement": "IC50", "setting": "[2]", "result": "> 100", "unit": "µM"}]}
{"molecule": "CC(=O)Nc1ccc(Sc2nc3c(c(-c4cc(F)ccc4Br)c2CN)c(=O)n(C)c(=O)n3C)cc1", "note": "[Compound 68, N-(4-(6-(aminomethyl)-5-(2-bromo-5-fluorophenyl)-1,3-dimethyl-2,4-dioxo-1,2,3,4-tetrahydropyrido[2,3-d]pyrimidin-7-ylthio)phenyl)acetamide]", "values": [{"measurement": "IC50", "setting": "[1]", "result": "10 to 100", "unit": "µM"}, {"measurement": "IC50", "setting": "[2]", "result": "< 1", "unit": "µM"}]}
{"molecule": "COc1ccc(F)cc1-c1c(CN)c(NCc2ccc3ccccc3c2)nc2c1c(=O)n(C)c(=O)n2C", "note": "[Compound 70, 6-(aminomethyl)-5-(5-fluoro-2-methoxyphenyl)-1,3-dimethyl-7-(naphthalen-2-ylmethylamino)pyrido[2,3-d]pyrimidine-2,4(1H,3H)-dione]", "values": [{"measurement": "IC50", "setting": "[1]", "result": "1 to 10", "unit": "µM"}, {"measurement": "IC50", "setting": "[2]", "result": "< 1", "unit": "µM"}]}
{"molecule": "COc1cccc(CNc2nc3c(c(-c4cc(F)ccc4OC)c2CN)c(=O)n(C)c(=O)n3C)c1", "note": "[Compound 71, 6-(aminomethyl)-5-(5-fluoro-2-methoxyphenyl)-7-(3-methoxybenzylamino)-1,3-dimethylpyrido[2,3-d]pyrimidine-2,4(1H,3H)-dione]", "values": [{"measurement": "IC50", "setting": "[1]", "result": "1 to 10", "unit": "µM"}]}
{"molecule": "COc1ccc(F)cc1-c1c(CN)c(NCc2ccc(-n3cccn3)cc2)nc2c1c(=O)n(C)c(=O)n2C", "note": "[Compound 72, 7-(4-(1H-pyrazol-1-yl)benzylamino)-6-(aminomethyl)-5-(5-fluoro-2-methoxyphenyl)-1,3-dimethylpyrido[2,3-d]pyrimidine-2,4(1H,3H)-dione]", "values": [{"measurement": "IC50", "setting": "[1]", "result": "1 to 10", "unit": "µM"}, {"measurement": "IC50", "setting": "[2]", "result": "< 1", "unit": "µM"}]}
{"molecule": "CCC(CC)Nc1nc2c(c(-c3cc(F)ccc3OC)c1CN)c(=O)n(C)c(=O)n2C", "note": "[Compound 73, 6-(aminomethyl)-5-(5-fluoro-2-methoxyphenyl)-1,3-dimethyl-7-(pentan-3-ylamino)pyrido[2,3-d]pyrimidine-2,4(1H,3H)-dione]", "values": [{"measurement": "IC50", "setting": "[1]", "result": "1 to 10", "unit": "µM"}]}
{"molecule": "COc1ccc(F)cc1-c1c(CN)c(NCCCc2ccccc2)nc2c1c(=O)n(C)c(=O)n2C", "note": "[Compound 75, 6-(aminomethyl)-5-(5-fluoro-2-methoxyphenyl)-1,3-dimethyl-7-(3-phenylpropylamino)pyrido[2,3-d]pyrimidine-2,4(1H,3H)-dione]", "values": [{"measurement": "IC50", "setting": "[1]", "result": "1 to 10", "unit": "µM"}, {"measurement": "IC50", "setting": "[2]", "result": "< 1", "unit": "µM"}]}
{"molecule": "CC(C)COc1cccc(-c2c(CN)c(N)nc3c2c(=O)n(C)c(=O)n3C)c1", "note": "[Compound 76, 7-amino-6-(aminomethyl)-5-(3-isobutoxyphenyl)-1,3-dimethylpyrido[2,3-d]pyrimidine-2,4(1H,3H)-dione]", "values": [{"measurement": "IC50", "setting": "[1]", "result": "> 100", "unit": "µM"}, {"measurement": "IC50", "setting": "[2]", "result": "10 to 100", "unit": "µM"}]}
